Assay results reported in ChEMBL document CHEMBL1132423, “Diethylcarbamoylating/nitroxylating agents as dual action inhibitors of aldehyde dehydrogenase: a disulfiram-cyanamide merger” (J Med Chem, 1999).

Target: T1, Aldehyde dehydrogenase 1A1 (Rattus norvegicus) (UniProt P51647)
T1 sequence (whole entry): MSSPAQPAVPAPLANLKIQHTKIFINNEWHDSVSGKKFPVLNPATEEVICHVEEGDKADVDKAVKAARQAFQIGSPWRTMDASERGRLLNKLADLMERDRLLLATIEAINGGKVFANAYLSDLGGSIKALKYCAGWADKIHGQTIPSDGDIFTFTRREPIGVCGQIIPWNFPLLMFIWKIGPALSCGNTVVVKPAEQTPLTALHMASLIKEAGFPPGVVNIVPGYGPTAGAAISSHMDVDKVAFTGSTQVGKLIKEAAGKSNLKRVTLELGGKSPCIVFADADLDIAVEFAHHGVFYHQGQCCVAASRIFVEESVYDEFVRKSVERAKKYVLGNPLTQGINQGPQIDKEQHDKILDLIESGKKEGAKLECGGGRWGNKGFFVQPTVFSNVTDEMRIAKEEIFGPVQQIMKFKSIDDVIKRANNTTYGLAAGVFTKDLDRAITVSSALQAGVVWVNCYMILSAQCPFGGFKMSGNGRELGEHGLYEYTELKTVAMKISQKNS
Experiment: Percent inhibition of rat hepatic mitochondrial […] dehydrogenase
Details: concentration not given here

inhibition: > 70%
Structure (SMILES): CCOC(=O)N(OC(=O)N(CC)CC)S(=O)(=O)c1ccccc1
